Experimental findings from patent US20170037028A1 (BAYER PHARMA AKTIENGESELLSCHAFT, priority 2013, published 2017) are described below.

SMILES strings stand for the structures.

By IC50 is commonly meant the concentration at which inhibition is half-maximal.

For the first test, the target named is T1, GLUT1 (Homo sapiens, UniProt P11166).
T1 sequence (P11166 1-492): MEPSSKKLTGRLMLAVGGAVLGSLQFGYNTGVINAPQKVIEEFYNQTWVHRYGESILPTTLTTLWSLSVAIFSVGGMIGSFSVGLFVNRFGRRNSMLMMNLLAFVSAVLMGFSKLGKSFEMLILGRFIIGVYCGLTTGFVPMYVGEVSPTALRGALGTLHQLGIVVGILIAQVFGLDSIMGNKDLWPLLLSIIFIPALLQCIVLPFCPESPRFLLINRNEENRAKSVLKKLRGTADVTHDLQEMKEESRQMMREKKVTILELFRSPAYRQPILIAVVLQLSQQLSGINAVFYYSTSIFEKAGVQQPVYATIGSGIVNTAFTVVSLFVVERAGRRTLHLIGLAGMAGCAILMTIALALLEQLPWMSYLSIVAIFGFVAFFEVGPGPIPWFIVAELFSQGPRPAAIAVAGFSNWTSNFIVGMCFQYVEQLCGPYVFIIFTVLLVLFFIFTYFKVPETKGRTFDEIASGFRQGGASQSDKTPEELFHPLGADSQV
In words: Indirect measurement of GLUT1 activity by quantification of intracellular ATP levels (glucose induced ATP increase). In kind it is cell-based. More on the design: endogenous in cells; host or cells: DLD1 or CHO-K1. The conditions noted are these: DLD1 cells; 0.1 mM glucose, 1 μM Rotenone, 15 min; CellTiter-Glo ATP readout; IC50 values standardized to cytochalasin B IC50 values; read-out: IC50 regarding glucose induced ATP increase (GLUT1 inhibition). The method, boiled down: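 DLD1 or CHO-K1 cells were starved overnight in glucose-free medium with 1% FCS, then combined with an oxidative phosphorylation inhibitor. GLUT1 activity was read as glucose-induced ATP increase, GLUT2 as fructose-induced. Intracellular ATP was quantified by CellTiter-Glo luminescence.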
(In general: Cellular ATP, detected with luciferase, serves as a proxy for viable cell number.)
As for `Cc1nn(CC2CCOCC2)c(C)c1NC(=O)c1cc(C(F)(F)F)nc2ccc(Br)cc12` [Example 1114], the IC50 was 59.2 nM.
Same read-out and setting: in the case of `Cc1c(NC(=O)c2cc(C(N)=O)nc3cc(F)ccc23)c(C(F)(F)F)nn1Cc1cc(C#N)no1` [Example 1669] it was 88.8 nM; in that of `Cc1c(NC(=O)c2cc(C(N)=O)nc3cc(F)cc(F)c23)c(C(F)(F)F)nn1Cc1ccc(C#N)cc1` [Example 243, N^4-[1-(4-cyanobenzyl)-5-methyl-3-(trifluoromethyl)-1H-pyrazol-4-yl]-5,7-difluoroquinoline-2,4-dicarboxamide], 0.5 nM.

Still in this test, the particulars now being: read-out: IC50 regarding glucose induced ATP increase (GLUT1 inhibition).
For `Cc1cccc(Cn2nc(C)c(NC(=O)c3cc(C(N)=O)nc4cc(F)ccc34)c2C)c1` [Example 1474], the IC50 worked out at 2.1 nM.
With `Cc1nn(Cc2ccc(C(=O)NCC3(CO)COC3)cn2)c(C)c1NC(=O)c1cc(C(F)(F)F)nc2ccc(Br)cc12` [Example 1239], the IC50 stood at 1470 nM.
The same measure, in the same setting: as for `Cc1c(NC(=O)c2cc(C(N)=O)nc3cccc(F)c23)c(C(F)(F)F)nn1Cc1ccc(C#N)nc1` [Example 291, N^4-{1-[(6-cyanopyridin-3-yl)methyl]-5-methyl-3-(trifluoromethyl)-1H-pyrazol-4-yl}-5-fluoroquinoline-2,4-dicarboxamide], the figure is 6.9 nM.
Consider `Cc1nn(Cc2cccc(OC(F)(F)F)c2)c(C)c1NC(=O)c1cc(C(F)(F)F)nc2ccc(Br)cc12` [Example 113, 6-bromo-N-{3,5-dimethyl-1-[3-(trifluoromethoxy)benzyl]-1H-pyrazol-4-yl}-2-(trifluoromethyl)quinoline-4-carboxamide], for which the concentration for half-maximal inhibition (IC50) amounted to 813 nM.
The same measure, in the same setting: in the case of `Cc1nn(Cc2ccc(C#N)nc2)c(C)c1NC(=O)c1cc(C(F)(F)F)nc2ccc(Br)cc12` [Example 147, 6-bromo-N-{1-[(6-cyanopyridin-3-yl)methyl]-3,5-dimethyl-1H-pyrazol-4-yl}-2-(trifluoromethyl)quinoline-4-carboxamide] it was 8.2 nM.
On the same count and under the same terms, in the case of `COc1cc(C(=O)Nc2c(C)nn(Cc3ccccc3C#N)c2C)c2ccccc2n1` [Example 80, N-[1-(2-cyanobenzyl)-3,5-dimethyl-1H-pyrazol-4-yl]-2-methoxyquinoline-4-carboxamide] it was 229 nM; in that of `Cc1nc2ccccc2c(C(=O)Nc2c(C)nn(Cc3ccc(F)cc3)c2C)c1C#N` [Example 1264], 2380 nM.
As for `Cc1nn(Cc2ccc(F)c(F)c2)c(C)c1NC(=O)c1cc(C2CC2)nc2ccc(Cl)cc12` [Example 145, 6-chloro-2-cyclopropyl-N-[1-(3,4-difluorobenzyl)-3,5-dimethyl-1H-pyrazol-4-yl]quinoline-4-carboxamide], the IC50 stood at 6.1 nM.
Same read-out and setting: in the case of `Cc1nn(Cc2cccc(OC(F)(F)F)c2)c(C)c1NC(=O)c1cc(C(N)=O)nc2cc(F)c(Cl)cc12` [Example 1583] it was 11.4 nM; in that of `Cc1nn(Cc2ccc(C(=O)NCCO)cc2)c(C)c1NC(=O)c1cc(C(F)(F)F)nc2ccc(Br)cc12` [Example 139, 6-bromo-N-(1-{4-[(2-hydroxyethyl)carbamoyl]benzyl}-3,5-dimethyl-1H-pyrazol-4-yl)-2-(trifluoromethyl)quinoline-4-carboxamide], 31.7 nM.
`Cc1c(NC(=O)c2cc(C(N)=O)nc3cc(F)ccc23)c(C(F)(F)F)nn1Cc1cccc(S(C)(=O)=O)c1` [Example 1637]: the IC50 amounted to 288 nM.
As for `Cc1ccc2nc(C)cc(C(=O)Nc3c(C)nn(Cc4cc(F)ccc4F)c3C)c2c1` [Example 1281], the IC50 was 5190 nM.
As for `Cc1nn(Cc2ccc(S(C)(=O)=O)cc2)c(C)c1NC(=O)c1cc(C(N)=O)nc2cccc(F)c12` [Example 1484], the IC50 was determined as 23.4 nM.
Same read-out and setting: as for `Cc1nn(Cc2ccc(F)cc2)c(C)c1NC(=O)c1cc(C(F)(F)F)nc2ccc(C(F)(F)F)cc12` [Example 98, N-[1-(4-fluorobenzyl)-3,5-dimethyl-1H-pyrazol-4-yl]-2,6-bis(trifluoromethyl)quinoline-4-carboxamide], the figure is 362 nM; as for `Cc1nn(Cc2cn3ccccc3n2)c(C)c1NC(=O)c1cc(C(F)(F)F)nc2ccc(Br)cc12` [Example 1528], 59.4 nM; as for `Cc1ccc2nc(C(N)=O)cc(C(=O)Nc3c(C)nn(Cc4ccc(C#N)cc4)c3C)c2c1` [Example 264, N^4-[1-(4-cyanobenzyl)-3,5-dimethyl-1H-pyrazol-4-yl]-6-methylquinoline-2,4-dicarboxamide], 2.6 nM.
Still for that read-out and setting: in the case of `Cc1nn(Cc2ccc(F)c(F)c2)c(C)c1NC(=O)c1cc(C(N)=O)nc2cc(F)ccc12` [Example 1470] it was 2.8 nM.
Turning to `Cc1nn(Cc2ccc(C#N)cc2)c(C(F)(F)F)c1NC(=O)c1cc(C(N)=O)nc2cc(F)ccc12` [Example 389, N^4-[1-(4-cyanobenzyl)-3-methyl-5-(trifluoromethyl)-1H-pyrazol-4-yl]-7-fluoroquinoline-2,4-dicarboxamide], the IC50 worked out at 1.9 nM.
In the case of `Cc1c(NC(=O)c2cc(C(N)=O)nc3ccccc23)c(C(F)(F)F)nn1Cc1ccc(C(C)(C)C)cc1` [Example 1370], the IC50 came to 1090 nM.
Still for that read-out and setting: in the case of `Cc1nn(Cc2ncccc2C#N)c(C)c1NC(=O)c1cc(C(N)=O)nc2cccc(F)c12` [Example 1410] it was 30.6 nM.
Still for that read-out and setting: as for `Cc1nn(Cc2ccc(C#N)nc2)c(C)c1NC(=O)c1cc(C(N)=O)nc2ccccc12` [Example 225, N^4-{1-[(6-cyanopyridin-3-yl)methyl]-3,5-dimethyl-1H-pyrazol-4-yl}quinoline-2,4-dicarboxamide], the figure is 14 nM.
As to `COc1cc(C(=O)Nc2c(C)nn(CCOc3ccc(C#N)cc3)c2C)c2ccccc2n1` [Example 1348], the IC50 worked out at 188 nM.
`Cc1nn(Cc2cc(C(C)C)no2)c(C)c1NC(=O)c1cc(C(N)=O)nc2ccccc12` [Example 1562]: the IC50 was determined as 55.9 nM.
For `Cc1c(NC(=O)c2cc(C(F)(F)F)nc3ccc(Br)cc23)c(C(F)(F)F)nn1Cc1ccc(C(=O)N2CCOCC2)cn1` [Example 1200], the half-maximal inhibitory concentration (IC50) is 408 nM.
The same measure, in the same setting: in the case of `Cc1nn(Cc2nc(C3CC3)no2)c(C)c1NC(=O)c1cc(C(F)(F)F)nc2ccc(Br)cc12` [Example 1502] it was 213 nM; in that of `Cc1nn(Cc2ccc(C(=O)N(C)CCC#N)cc2)c(C)c1NC(=O)c1cc(C(F)(F)F)nc2ccc(Br)cc12` [Example 1160], 161 nM; in that of `Cc1ccccc1Cn1nc(C(F)(F)F)c(NC(=O)c2cc(C(N)=O)nc3cc(F)ccc23)c1C` [Example 1495], 7.3 nM.
Turning to `Cc1nn(Cc2ccc(C#N)cc2)c(C)c1NC(=O)c1cc(C(N)=O)nc2cc(F)c(F)cc12` [Example 230, N^4-[1-(4-cyanobenzyl)-3,5-dimethyl-1H-pyrazol-4-yl]-6,7-difluoroquinoline-2,4-dicarboxamide], the IC50 came out at 5 nM.
Still for that read-out and setting: as for `COc1cc(C(=O)Nc2c(C)nn(Cc3ccc(C)cc3)c2C)c2ccccc2n1` [Example 61, N-[3,5-dimethyl-1-(4-methylbenzyl)-1H-pyrazol-4-yl]-2-methoxyquinoline-4-carboxamide], the figure is 110 nM.
Turning to `Cc1nn(Cc2ccc(F)cc2)c(C)c1NC(=O)c1cc(C(F)(F)F)nc2ccc(C#N)cc12` [Example 103, 6-cyano-N-[1-(4-fluorobenzyl)-3,5-dimethyl-1H-pyrazol-4-yl]-2-(trifluoromethyl)quinoline-4-carboxamide], the IC50 came to 462 nM.
Still for that read-out and setting: as for `COc1cc(C(=O)Nc2c(C(F)(F)F)nn(Cc3ccc(S(C)(=O)=O)cc3)c2C)c2ccccc2n1` [Example 1431], the figure is 138 nM; as for `COCCNC(=O)c1ccc(Cn2nc(C(F)(F)F)c(NC(=O)c3cc(C(F)(F)F)nc4ccc(Br)cc34)c2C)nc1` [Example 1115], 59.4 nM; as for `Cc1cc(Cn2nc(C)c(NC(=O)c3cc(C(N)=O)nc4ccccc34)c2C)on1` [Example 1560], 39.8 nM.
The same measure, in the same setting: as for `COc1cc(C(=O)Nc2c(C(=O)N(C)C)nn(Cc3ccc(F)cc3)c2C)c2ccccc2n1` [Example 1265], the figure is 2480 nM; as for `CCN(CC)C(=O)c1ccc(Cn2nc(C)c(NC(=O)c3cc(C(F)(F)F)nc4ccc(Br)cc34)c2C)cc1` [Example 1203], 433 nM.
Still for that read-out and setting: in the case of `Cc1cc(C#N)c2nc(C(F)(F)F)cc(C(=O)Nc3c(C)nn(Cc4ccc(F)cc4)c3C)c2c1` [Example 102, 8-cyano-N-[1-(4-fluorobenzyl)-3,5-dimethyl-1H-pyrazol-4-yl]-6-methyl-2-(trifluoromethyl)quinoline-4-carboxamide] it was 446 nM; in that of `Cc1nn(Cc2ccc(F)cc2)c(C)c1NC(=O)c1c(C)c(O)nc2ccccc12` [Example 1272], 3180 nM.
Turning to `Cc1nn(Cc2ccc(C(=O)NCc3cnn(C)c3)cc2)c(C)c1NC(=O)c1cc(C(F)(F)F)nc2ccc(Br)cc12` [Example 1154], the IC50 was 139 nM.
On the same count and under the same terms, in the case of `Cc1nn(Cc2ncccc2C#N)c(C)c1NC(=O)c1cc(C(N)=O)nc2cc(F)c(F)cc12` [Example 222, N^4-{1-[(3-cyanopyridin-2-yl)methyl]-3,5-dimethyl-1H-pyrazol-4-yl}-6,7-difluoroquinoline-2,4-dicarboxamide] it was 7.1 nM.
